# Test results taken from US12150940B2, “WASp-protecting small molecules, compositions, methods and uses thereof in the treatment of innate and acquired immune-related disorders or conditions” (BAR ILAN UNIVERSITY, priority 2016, dated 2024).
# How the values were obtained:
# Type in all cases: cell-based, human
# WAS−/− Jurkat T-cells = assay: Lymphocyte migration on ICAM-1/SDF-1α, WAS−/− cells
# Procedure: (§1) WASp knockout Jurkat T-cell lines that express only exogenous YFP-WASp R86C (WAS^−/−/WASp R86C) or Y107C (WAS^−/−/WASp Y107C) were pretreated with SMC #34 in comparison to cells treated with the control. Cells that completely lack WASp expression (WAS^−/−) were also treated with the control. Cellular migration was tracked over a 20-min period on ICAM-1/SDF-1α-coated cover glasses, as described in Experimental procedures.
# (§2) Approximately 1×10^5 lymphocytes were seeded over chambered coverslips (LabTek) pre-coated with 6 μg/ml ICAM-1 and 2 μg/ml SDF-1α. Cells were incubated at 37° C., 5% CO2 and DIC images were acquired with the Zeiss Observer Z1 inverted microscope every 5 s for 20 min under a 20× objective lens using Zen software. The random movement (Displacement and velocity) of the cells was automatically tracked and analyzed using TrackMate plugin of ImageJ software. An individual trace was assigned to each of the analyzed cells.
# YFP-WASp R86C or Y107C = assay: WASp expression in WASp knockout Jurkat lines expressing only YFP-WASp R86C or Y107C (western blot); details: WAS−/−/WASp R86C or Y107C, vs control-treated cells
# Procedure: The cells were then co-stimulated with anti-CD3 and anti-CD28 and analyzed by western blot as described in FIG. 14B. […] Relative protein expression was determined by densitometric analysis and is presented below the corresponding lanes.
# CRISPR/CAS9 knockdown of endogenous WASp in T-cells was conducted according to published protocol (Ran F A et al, 2013). The vector pSpCas9 (BB)-2A-GFP (PX458) was purchased from Addgene, plasmid #48138. RNA guides were designed to target an intron/exon junction in the WAS gene, in order to eliminate gene silencing of exogenous YFP-WASp. RNA guide sequences aimed for WASp locus were constructed using the online CRISPR design tool algorithm (Zhang Lab) and NCBI gene. The guides which received the highest score were selected to be subcloned into the pSpCas9 (BB)-2A-GFP (PX458) vector.
# The sequence present in WASp exons is bold. The sequence that is complementary to WASp intron (chromosome X, GRCh38.p7 nucleotides 1883-1890) is underlined. Knockout of endogenous WASp was conducted in Jurkat cells alone or in Jurkat cells stably expressing YFP-WASp containing the following mutations, R86C (as denoted by SEQ ID NO. 13 and encoded by SEQ ID NO. 14) or Y107C (as denoted by SEQ ID NO. 15 and encoded by SEQ ID NO. 16). […]
# Cells exclusively expressing the YFP-WASp mutants were incubated with SMC #34 or solvent, stimulated and analyzed by western blot.
# [1] = tested on: WAS−/−/WASp Y107C Jurkat T-cells; assay: Lymphocyte migration on ICAM-1/SDF-1α, WAS−/−/WASp Y107C cells
# Procedure: as §1, §2
compound,measurement,setting,value
"CC1CCCC(C)N1C(=O)CSc1nnc(COc2cccc3cccnc23)o1 (stereo not shown) [SMC #34, 1-(2,6-dimethylpiperidin-1-yl)-2-[[5-(quinolin-8-yloxymethyl)-1,3,4-oxadiazol-2-yl]sulfanyl]ethanone]",migration,WAS−/− Jurkat T-cells,completely restored the migration
same,WASp expression in cells exclusively expressing the YFP-WASp mutants,YFP-WASp R86C or Y107C,increased WASp expression
same,migration,"[1]; WAS−/−/WASp Y107C cells, vs control",significantly increased
same,mean cell displacement,"[1]; WAS−/−/WASp Y107C, 20 min, mean ± SE",74.24±8.16
